Measurements: the supplement of paper PMC10307832

Key:
Assay in all cases: relative viability (nuclei count vs DMSO), 5 days (fraction); higher = more cells survive
[1] = compound: C1=CC=C(C(=C1)C2=CC=C(C=C2)C3=CSC4=C3C(=C(C(=O)N4)C#N)O)O
How it was run: (§1)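 Viability here means nuclei in treated wells divided by nuclei in vehicle wells, reported as the median across plates. Only plates with control CV below 25% and at least one doubling passed. Lung cancer cell lines in 1536-well plates were exposed to five √10-spaced library-drug doses for 5 days and counted from 4× Hoechst images in MetaXpress.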

TGX 221 = compound: CC1=CN2C(=O)C=C(N=C2C(=C1)C(C)NC3=CC=CC=C3)N4CCOCC4 [TGX 221]
How it was run: as §1

Ricolinostat = compound: O=C(CCCCCCNC(=O)c1cnc(N(c2ccccc2)c2ccccc2)nc1)NO [Ricolinostat]
How it was run: as §1

TGX 221 + Crizotinib = compound: CC1=CN2C(=O)C=C(N=C2C(=C1)C(C)NC3=CC=CC=C3)N4CCOCC4 [TGX 221] + C[C@@H](Oc1cc(-c2cnn(C3CCNCC3)c2)cnc1N)c1c(Cl)ccc(F)c1Cl [Crizotinib] (partner 1 µM)
How it was run: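 Five library-drug doses in √10 steps were combined with a fixed anchor-drug dose, or a single drug was given alone, by pin tool to lung cancer cell lines in 1536-well plates the day after seeding. Nuclei were stained and counted after 5 days. Relative viability is the nuclei count in treated wells over that in vehicle wells, taken as the median of duplicate plates.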

Row | Cell Line | relative viability ([1]; 0.08 µM) | relative viability ([1]; 0.253 µM) | relative viability ([1]; 0.8 µM) | relative viability ([1]; 2.53 µM) | relative viability ([1]; 8 µM) | relative viability (TGX 221; 0.08 µM) | relative viability (TGX 221; 0.253 µM) | relative viability (TGX 221; 0.8 µM) | relative viability (TGX 221; 2.53 µM) | relative viability (TGX 221; 8 µM) | relative viability (Ricolinostat; 0.08 µM) | relative viability (Ricolinostat; 0.253 µM) | relative viability (Ricolinostat; 0.8 µM) | relative viability (Ricolinostat; 2.53 µM) | relative viability (TGX 221 + Crizotinib; first compound 0.08 µM) | relative viability (TGX 221 + Crizotinib; first compound 0.253 µM) | relative viability (TGX 221 + Crizotinib; first compound 0.8 µM) | relative viability (TGX 221 + Crizotinib; first compound 2.53 µM) | relative viability (TGX 221 + Crizotinib; first compound 8 µM)
1 | HARA | 0.768 | 1.98 | 0.999 | 0.751 | 0.856 | 0.997 | 0.947 | 0.964 | 0.942 | 1.05 | 0.878 | 1 | 0.866 | 0.567 | 1.06 | 1.02 | 0.905 | 1.16 | 0.795
2 | NCI-H2087 | 1.02 | 1.21 | 1.08 | 1.05 | 0.637 | 1.19 | 1.15 | 1.12 | 1 | 0.988 | 0.912 | 1.02 | 0.974 | 0.699 | 1.02 | 1.01 | 0.802 | 0.979 | 1.19
3 | NCI-H1650 | 0.727 | 1.29 | 0.913 | 0.93 | 0.612 | 0.979 | 0.816 | 0.862 | 0.859 | 0.705 | 0.774 | 0.884 | 0.789 | 0.678 | 0.828 | 0.857 | 0.875 | 0.956 | 0.545
4 | NCI-H1563 | 0.959 | 0.971 | 0.976 | 0.955 | 0.989 | 0.947 | 0.915 | 0.831 | 0.866 | 0.748 | 0.894 | 1.02 | 0.837 | 0.864 | 0.846 | 0.832 | 0.766 | 0.736 | 0.666
5 | NCI-H1666 | 1.02 | 1.3 | 1.03 | 0.998 | 0.873 | 1.01 | 0.955 | 0.946 | 0.97 | 0.933 | 0.963 | 0.948 | 0.986 | 0.904 | 1 | 0.933 | 0.988 | 0.935 | 0.957
6 | LCLC-103H | 1.02 | 0.984 | 1.05 | 0.984 | 1 | 0.903 | 0.983 | 0.878 | 0.928 | 0.959 | 0.778 | 0.957 | 1.04 | 1.08 | 1.12 | 1.06 | 0.986 | 0.959 | 0.876
7 | HOP-62 | 1.08 | 1.12 | 1 | 1.08 | 0.82 | 0.965 | 1.06 | 1.04 | 1.09 | 1.09 | 0.932 | 0.987 | 1.03 | 0.913 | 0.893 | 0.873 | 0.992 | 0.953 | 0.88
8 | BEN | 0.883 | 0.951 | 0.966 | 0.999 | 0.811 | 0.914 | 0.856 | 0.918 | 0.899 | 0.937 | 0.743 | 0.966 | 0.754 | 0.694 | 0.931 | 0.641 | 0.821 | 0.795 | 0.721
